Experimental data taken from a melting point compilation (Tetko et al.; mined from patent text by program, amines drawn as free bases though some values may be those of a salt).

SMILES	melting point
O=c1c2c(Cc3ccc(F)cc3)n[nH]c2c2cccnc2n1-c1cccc(C(F)(F)F)c1	243 to 245 °C
Cc1cc(O)ccc1-c1cnc2[nH]c(=O)n(CC3CCCCC3)c2n1	212 to 214 °C
C=Cc1ccc(OS(C)(=O)=O)cc1	57 to 58 °C
CC(C)(CNc1ccnc2cc(Cl)ccc12)NCc1ccc(F)c(Cl)c1	164 to 165 °C
CCN(CC)C(=O)c1ccnc(Br)c1	200 to 203 °C
Nc1ccc(S(=O)(=O)c2cc(-c3ccc4ccccc4c3)nc(N3CCCC3)c2)cc1	244 to 246 °C
Cc1cccc(-c2ccccc2NC(=N)N2CCCCC2)c1	131 °C
Cc1c(CC(=O)O)c2cc(OCc3ccc4ccccc4c3)ccc2n1Cc1ccc(Cl)cc1	168 to 170 °C
Nc1ccc(C(=O)N2CCC[C@@H]3CCCC[C@H]32)cc1[N+](=O)[O-] (relative stereo)	212 to 215 °C
CC(C)(C)CC(=O)N1C[C@@H](c2c[nH]c3ccccc23)[C@H](c2cn3c4c(cccc24)CCC3)C1	202 to 204 °C
O=C(O)c1nc(-c2ccc(Cl)cc2Cl)[nH]c1C(=O)O	238 °C
c1ccc(OCCSCc2nnc(-c3ccc(OCCCN4CCCCC4)cc3)o2)cc1	65 °C
COc1ccc([N+](=O)[O-])c(CS(=O)(=O)c2ccccc2)c1	167 to 169 °C
Cc1ccc(S(=O)(=O)CCC2OCCO2)cc1	78 to 80 °C
COc1cccc(-n2nc(Sc3ccc(Cl)cc3)c(C)c(C#N)c2=O)c1	148 to 149 °C
CON=C(Nc1nc(OC)nc(OC)n1)NS(=O)(=O)c1ccccc1-c1ccccc1	189 to 190 °C
O=C(CCOCCOCCC(=O)Oc1cc(O)cc(O)c1)Oc1cc(O)cc(O)c1	166 to 168 °C
CC(C)(C)C(=O)Nc1nn(-c2ccc(F)cc2F)c2c1C1CCC2C1 (centres undefined)	136 to 138 °C
CCn1nc(C)c2c1C(=O)NCC(c1cccc(O)c1)=N2	204 °C
O=C(NCCN1CCC2(CC1)C(=O)NCN2c1ccccc1)c1ccc(F)cc1[N+](=O)[O-]	160 °C
CCCCc1nn(-c2ccccc2Cl)c(=O)[nH]1	103 to 104 °C
O=C(O)COc1cccc2c1CCc1sc(S(=O)(=O)C(c3ccc(F)cc3)c3ccc(F)cc3)nc1-2	186 to 188 °C
COc1ccc2c(c1)CCc1ccccc1C2=O	72 to 73 °C
COc1ccc(-c2nc(N)ncc2-c2ccc(=O)n(C)n2)cc1OC	232 °C
COc1cc(-c2ccccc2F)c(Cl)cc1C(=O)N1Cc2cccn2Cc2ccccc21	192 to 194 °C

SMILES	melting point
N#Cc1ccc(S(F)(F)(F)(F)F)cc1[N+](=O)[O-]	57 to 59 °C
CCOC(=O)c1cnn(-c2ncc(Cl)cc2Cl)c1N	98 to 101 °C
O=c1c2cc(F)ccc2nc(C(S)c2ncnc3[nH]cnc23)n1-c1ccccc1Cl (centres undefined)	233 °C
O=C1N(CCCC2CC2)c2ccccc2C12COc1cc3c(cc12)OCO3 (centres undefined)	111 to 113 °C
CC(C)(CCCCC=CCCCCC(C)(C)CC(=O)O)CC(=O)O	100 to 101 °C
COc1cccc(OC)c1C(=O)Nc1nnc(-c2ccc(NC(C)=O)cc2)s1	211 to 213 °C
CN(Cc1ccccc1)[C@H](Cc1c[nH]c2ccccc12)c1nc(-c2ccccc2)c[nH]1	110 to 112 °C
CC(C)CCNC(=O)c1ccccc1-c1ccccc1CNS(=O)(=O)c1cccc(F)c1	141 °C
O=c1c2cc(F)c(N3CCCC3)nc2n(-c2ccc(F)cc2F)c(=O)n1OCc1ccccc1	183 to 185 °C
NCC1CCc2[nH]c3ccc(F)c(Cl)c3c2C1 (centres undefined)	179 to 180 °C
CC1(C(=O)c2c[nH]c3ncc(-c4cccs4)nc23)CCCCC1	224 to 225 °C
O=C1Cc2c([nH]c3cc(Cl)cc(Cl)c23)-c2ncccc2N1	> 330 °C
Cc1ccc(S(=O)(=O)N2CCN([C@H](C)[C@](O)(Cn3cncn3)c3ccc(F)cc3F)CC2)cc1	81 to 83 °C
COC(=O)Cc1ccccc1Oc1cccc(O)c1	115 to 116 °C
O=C1c2ccc(Cl)cc2C(O)N1c1ccc2ccc(Cl)nc2n1 (centres undefined)	220 to 230 °C
O=C(O)c1ccccc1NC1CCOC1=O (centres undefined)	197 to 198 °C
CCC(CC)Nc1cc(C(=O)O)ccc1N1C(=O)CCC1(CO)CO	220 to 221 °C
CC1(C)CCC(C)(C)c2c(OCc3ccc(F)cc3)cc(C(=O)c3ccc4cc(C(=O)O)ccc4c3)cc21	277 °C
COCC(=O)Nc1cccc2c1C(=O)N(C1(C)CCC(=O)NC1=O)C2=O (centres undefined)	244 to 246 °C
NC1(c2ccccc2Cl)C(=O)Nc2ccc(Cl)cc21 (centres undefined)	174 to 176 °C
Cc1ccc(CI)cc1Cl	88 °C
O=C(c1ccccc1CBr)c1ccc(Cl)cc1CBr	152 to 153 °C
CS(=O)(=O)c1cccc(C2=C(C3CCCC3)CCC2=NO)c1	164 to 165 °C
N#Cc1cn(-c2ccc(F)cc2F)c(=O)n(SC(Cl)(Cl)Cl)c1=O	196 to 198 °C
CCOC(=O)c1ccc(OCCCCCCCCCCCCCOc2ccc(Cl)cc2)cc1	75 to 77 °C

SMILES	melting point
CC[C@H]1c2ccc(C#N)n2-c2cc(F)c(F)cc2N1S(=O)(=O)c1ccc(O)cc1	191 to 192 °C
CCCCCCCN1CCCc2cccc(O)c21	33 to 34 °C
CCOC(=O)c1cc(-c2ccc(Cl)cc2)ns1	87.5 to 89 °C
CCCc1c(OCCCOc2cc(NC(=O)C(=O)O)c(C)cc2Br)ccc(C(C)=O)c1O	101 to 103 °C
CN(c1cc(OC(F)(F)F)cc2cc(C3=NCC(CCO)S3)[nH]c12)S(=O)(=O)c1cccs1 (centres undefined)	152 to 153 °C
S=c1[nH]c2cccc(OCCN3CCc4ccccc4C3)c2[nH]1	249 to 250 °C
Cn1c(-c2ccccc2)cc2oc(=O)nc(-c3ccccc3)c2c1=O	178 to 179 °C
COc1ccc(Sc2nc(-c3ccccc3)n(Cc3cc4c(cc3Cl)OCO4)c2C=O)cc1	116 °C
Nc1cccc2c1C(=O)N([C@@H]1CCC(=O)NC1=O)C2=O	308 to 310 °C
O=[N+]([O-])c1ccc(NN=CCc2cccnc2)cc1	212 to 214 °C
N#Cc1ccc(-c2nc(=O)c3ccccc3s2)cc1	241 °C
CCC(O)(CC)c1cccc(COc2ccc3c(-c4ccoc4)cc(C#N)cc3c2)n1	115 to 116 °C
COC(=O)[C@]1(C)Oc2ccccc2NC1=O	153 to 157 °C
N#Cc1cccnc1N1CCN(CC(=O)Nc2cccc(C(F)(F)F)c2)CC1	157 to 158 °C
CCn1cc(-c2c(-c3ccccc3F)nn3ccncc23)ccc1=O	173 to 174 °C
NS(=O)(=O)c1cc(C(=O)CBr)ccc1Cl	169 °C
COc1ccc(C2CCCCC2)cc1-c1csc(NC(=O)N2CCN(C[C@@H]3CCCN(CC#N)C3)CC2)n1	106 °C
Brc1ccc2oc(Cc3cccs3)cc2c1	84 to 86 °C
COc1ccc(C(=Cc2nnnn2C)c2ccc(OC)cc2)cc1	146 to 147 °C
Cc1[nH]c2ccc(S(=O)(=O)c3ccc(C(F)(F)F)cc3)cc2c1CCNC(=O)OC(C)(C)C	162 to 164 °C
CCOC(=O)c1c(O)c2cc(C)ccc2[nH]c1=O	242 °C
CS(=O)(=O)Nc1cc2oc(NC=O)cc(=O)c2cc1Oc1ccccc1	214 to 216 °C
CC(=CC(=O)N1CCCC1C(=O)O)C(=O)c1ccc(Br)cc1 (centres undefined)	137 to 144 °C
O=C1c2ccccc2C(O)N1CCCl (centres undefined)	133 to 134 °C
CC1(O)CCC2(C)C(CCC3C2CCC2(C)C3CCC2[N+](=O)[O-])C1 (centres undefined)	211 to 213 °C

SMILES	melting point
CCOC(=O)C(C)c1csc(=Nc2ccccc2)n1C (centres undefined)	80 to 81 °C
CCc1nn2ccc3c(c2c1CC#N)CCO3	179 to 180 °C
CC(=O)NCC1(c2ccccc2)CCN(CCC(c2ccccc2)(c2ccccc2)c2ccccc2)CC1	154 to 167 °C
c1ccc(-c2ccc(-c3cn([C@H]4CN5CCC4CC5)nn3)s2)cc1	184 °C
O=S(=O)(O)c1ccc(NCc2ccc(Cl)cc2Cl)cc1	> 275 °C
O=C(O)C1CS(=O)(=O)C2CC(=O)N12 (centres undefined)	164 to 167 °C
Cc1cc(C)n(C(=O)CNS(=O)(=O)c2ccc(CC(C)C)cc2)n1	124 °C
COC(=O)c1cc2c(cc1[N+](=O)[O-])OCCO2	115 to 118 °C
CCN(CC)c1ccc(-c2ccc3c(c2)C=C(C(=O)Nc2ccc(CN(C)C4CCOCC4)cc2)CCN3C)cc1	178 to 180 °C
Cc1cc2c(CCl)c(CO)c(Cl)nc2cc1Cl	169 to 170 °C
C#CCc1c(C)nc2c(OCc3c(C)cccc3NC(=O)C(C)O)cccn12 (centres undefined)	186 to 188 °C
CC1(Br)C(Br)=C(Br)C(Br)=C1Br	60 to 61 °C
N#CC(c1ccccc1)c1ccc(Cl)nn1 (centres undefined)	131 °C
Cc1ccnc(NC(c2ccc([N+](=O)[O-])cc2)c2ccc3cccnc3c2O)n1 (centres undefined)	136 to 145 °C
COc1cccc(-c2cn(C)cc(-c3cccc(C(F)(F)F)c3)c2=O)c1OC	153 to 155 °C
C[C@@H]1CN(CC(=O)Nc2ccccc2C(F)(F)F)C[C@H](C)N1c1ncnc2sccc12	154 to 155 °C
COc1ccc(C(=O)O)cc1NC(=O)C(CSC(C)=O)Cc1ccccc1 (centres undefined)	172 to 175 °C
C=Cc1ccc(-c2ccc3cc(C(=O)OCc4ccccc4)ccc3c2)cc1C12CC3CC(CC(C3)C1)C2	158 to 160 °C
CCCCN1CCC(CCC(=O)c2cc(Cl)c(N)nc2OC)CC1	86 to 87 °C
Cc1ccc(CN2C(=O)[C@@H](NC(=O)Cc3ccccc3)[C@H]2CO)c(C)c1 (relative stereo)	152 to 154 °C
CCC[C@](CC=O)(CCc1ccccc1)OCOc1ccc(-c2ccccc2)cc1	47 to 48.5 °C
CC(=O)CCc1ccc(C(=O)c2ccc(F)cc2)cc1	67 to 68 °C
O=C(c1ccccc1)c1cc2c([N+](=O)[O-])c(O)c(O)cc2oc1=O	94 to 96 °C
CCCCc1nc(SC)c(C(=O)O)n1Cc1ccc(-c2nc3ccccn3c2-c2nnn[nH]2)cc1	160 °C
